Data published in publication PMC11391452, “Fruits from Rosa roxburghii: A Valuable Bioresource of Potent Radical Scavengers and Novel Ursane-Type Triterpenoids” (ACS Omega, 2024).
Entries after “also recorded” stand apart in the source; their conditions may differ.

Tests used:
COX-1 = target: T1, COX-1 (Ovis aries, UniProt P05979); experiment: COX (ovine) colorimetric inhibitor screening assay, COX-1; format: biochemical; details: for COX-1 inhibition, in words: in comparison to acetaminophen, Figure 3 A
T1 construct: purchased Cayman 760110
T1 sequence (P05979 25-600): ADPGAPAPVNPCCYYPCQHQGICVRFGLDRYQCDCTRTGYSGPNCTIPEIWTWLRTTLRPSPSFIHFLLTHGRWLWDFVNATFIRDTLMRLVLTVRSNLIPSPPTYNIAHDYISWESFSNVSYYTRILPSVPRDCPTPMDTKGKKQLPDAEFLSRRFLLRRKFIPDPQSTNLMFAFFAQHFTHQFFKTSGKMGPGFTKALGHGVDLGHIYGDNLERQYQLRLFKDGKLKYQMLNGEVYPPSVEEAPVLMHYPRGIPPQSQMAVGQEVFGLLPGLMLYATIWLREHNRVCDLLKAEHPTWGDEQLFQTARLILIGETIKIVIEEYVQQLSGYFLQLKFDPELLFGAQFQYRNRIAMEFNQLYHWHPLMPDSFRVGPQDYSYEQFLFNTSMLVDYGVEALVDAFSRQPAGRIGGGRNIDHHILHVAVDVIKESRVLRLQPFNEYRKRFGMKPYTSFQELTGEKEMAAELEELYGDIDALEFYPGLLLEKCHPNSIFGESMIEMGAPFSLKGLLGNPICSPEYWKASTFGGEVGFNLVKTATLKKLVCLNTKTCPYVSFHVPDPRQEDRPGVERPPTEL
Method: (§1) Each compound was assayed in triplicate, and GraphPad Prism 8 software was used to calculate EC50 values. All statistical analyses were performed by Microsoft Excel.

COX-2 = target: T2, COX-2 (Ovis aries, UniProt P79208); experiment: COX (ovine) colorimetric inhibitor screening assay, COX-2; format: biochemical; details: for COX-2 inhibition, in words: in comparison to acetaminophen, Figure 3 A
T2 construct: purchased Cayman 760110
T2 sequence (P79208 17-603): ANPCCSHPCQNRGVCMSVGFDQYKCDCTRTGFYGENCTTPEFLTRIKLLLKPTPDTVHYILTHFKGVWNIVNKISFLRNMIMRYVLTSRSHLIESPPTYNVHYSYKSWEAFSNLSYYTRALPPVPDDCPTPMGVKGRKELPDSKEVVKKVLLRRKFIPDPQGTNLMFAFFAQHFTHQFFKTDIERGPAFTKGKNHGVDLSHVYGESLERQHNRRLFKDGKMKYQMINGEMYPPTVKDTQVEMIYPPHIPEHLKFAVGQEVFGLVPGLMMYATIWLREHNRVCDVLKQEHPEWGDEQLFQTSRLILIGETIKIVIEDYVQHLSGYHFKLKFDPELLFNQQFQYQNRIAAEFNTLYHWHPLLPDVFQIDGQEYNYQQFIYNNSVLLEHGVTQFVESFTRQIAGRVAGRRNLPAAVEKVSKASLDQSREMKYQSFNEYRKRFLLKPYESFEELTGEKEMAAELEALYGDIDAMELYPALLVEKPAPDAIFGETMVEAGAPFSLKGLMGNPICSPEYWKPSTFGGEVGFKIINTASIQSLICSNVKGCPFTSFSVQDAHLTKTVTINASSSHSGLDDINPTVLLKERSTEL
Method: as §1

[1] = DPPH radical scavenging capacity assay; details: for EC50 / DPPH EC50: pure compounds, 30 min, 517 nm, ascorbic acid positive control; for free radical scavenging effect in comparison to ascorbic acid, in words: DPPH assay
Method: The DPPH radical scavenging capacity assay was performed according to a previously described method with slight modifications.[34] Briefly, the tested compounds or extracts were dissolved in a small volume of DMSO to generate a 10 mM or 100 mg mL^–1 (for the extracts) stock solution and diluted to generate the final testing solution with methanol. The 0.2 mM fresh DPPH methanol solution was prepared daily. The 90 μL of methanolic solution of DPPH was added to 60 μL of tested compound solution with different concentrations (or 60 μL of methanol as blank) in 96-well plates and allowed to react for 30 min at ambient temperature in the dark. The absorbance (OD) was measured at 517 nm on an Infinite M200 Pro (Tecan, Austria) microplate reader. The level of the DPPH• scavenging activity was calculated as [drawing 1] The EC50 values were calculated by using GraphPad Prism 8 software 4.6.

HaCaT cells = experiment: Anti-aging bioassay (UV-B irradiation model and viability assay, MTS); format: cell-based, Human; details: samples 25 μM, 24 h
Method: Human HaCaT cells were cultured routinely in DMEM (high glucose) supplemented with 10% fetal bovine serum and 1% penicillin–streptomycin solution in a humidified incubator at 37 °C and 5% CO2.[19] All cells were cultured in culture dishes, and the medium was changed every day. The cells were cultured when the cell density reached 80%. Briefly, the HaCaT cells were cultured for 24 h after plating at a density of 4 × 10^4 cells/100 μL in 96-well plates. Subsequently, cells were irradiated according to the grouping using a 20 W UV–B lamp (SiTing, Shanghai, CN) at a distance of 10 cm for 5 s. The irradiation dose was calculated to be approximately 0.80 J cm^–2. Cells were divided into the following groups: control, UV–B alone, and UV–B + samples (25 μM). After UV–B irradiation, HaCaT cells continued to culture for 24 h with the medium containing compounds to be measured. The effects of those compounds on cell protection were determined by the MTS assay (BestBio, Shanghai, CN). After incubation, cells in each well were treated with 20 μL MTS solution for 1 h. The absorbance at 490 nm was measured directly with a microplate reader (FlexStation3, Molecular Devices, CA, US). Cell viability was expressed as the ratio percentage of MTS after deducting background value, assuming that the absorbance of control cells with deducting background absorbance was 100%.

HepG2 cells = experiment: Hepatoprotective assay (APAP-exposed cells, cell viability); format: cell-based; details: tested concentration of 100 μM (method 50 μM), 20 mM APAP, Figure 3 B1
Method: HepG2 cells were seeded into 96-well tissue culture dishes at 5 × 10^3 cells/well and cultured overnight in DMEM medium supplemented with 10% FBS and 1% penicillin/streptomycin antibiotics at 37 °C in a humidified 5% CO2 incubator. The cells were then incubated with test compounds at 50 μM or extracts at 200 mg mL^–1 for 4 h before acetaminophen (APAP) exposure. After this pretreatment, the experimental group was treated with 20 mM APAP together with the compounds; the APAP-only group was treated with 20 mM neomycin and an equivalent volume of DMSO; and the control group was treated with an equivalent volume of DMSO without APAP or test compounds. After another 24 h of culture, the cell viability was then measured using the CellTiter 96 Aqueous One Solution Cell Proliferation Assay kit (Promega, USA).[12]

[2] = pure compounds, acetaminophen positive control

| SMILES | EC50 (COX-1; [2]) [µM] | EC50 (COX-2; [2]) [µM] | EC50 [1] [µM] | DPPH EC50 [1] | COX-1 inhibition, in words (COX-1) | anti-aging effect (cell viability after UV-B irradiation), in words (HaCaT cells; Figure 3 B2) | anti-aging effect (cell viability after UV-B irradiation), in words (HaCaT cells; Figure 3 B2, listed as rosaroxine C) | hepatoprotective effect (cell viability of HepG2 cells), in words (HepG2 cells) | COX-2 inhibition, in words (COX-2) | anti-aging effect (cell viability after UV-B irradiation), in words (HaCaT cells; Figure 3 B2, listed as 2-oxo-pomolic acid) | free radical scavenging effect in comparison to ascorbic acid, in words [1] | COX-1 EC50 (COX-1; [2]) | COX-2 EC50 (COX-2; [2]) |
| --- | --- | --- | --- | --- | --- | --- | --- | --- | --- | --- | --- | --- | --- |
| CC(=O)Nc1ccc(O)cc1 [Acetaminphen, acetaminophen, reference compound] | > 100 | 45 |  |  |  |  |  |  |  |  |  |  |  |
| O=C1O[C@H]([C@@H](O)CO)C(O)=C1O [Ascorbic acid, ascorbic acid, reference compound] |  |  | 31.3 |  |  |  |  |  |  |  |  |  |  |
| CC1(C)C(O)C(=O)CC2(C)C1CCC1(C)C2CC=C2C3C(C(=O)O)(CCC(C(=O)O)C3(C)O)CCC21C (centres unmarked) [Compound 3, rosaroxine C] | 40.3 | 37.4 |  | no activity | significant activities; also recorded: high inhibition rates | most active compounds | performed well | no protective effects | significant activities; also recorded: high inhibition rates |  |  |  |  |
| C[C@@H]1CC[C@]2(C(=O)O)CC[C@]3(C)C(=CC[C@@H]4[C@@]5(C)CC(=O)[C@H](O)C(C)(C)[C@@H]5CC[C@]43C)[C@@H]2[C@]1(C)O [Compound 5, 2-oxo-pomolic acid] | 28.2 | 16.6 |  | no activity | significant activities; also recorded: high inhibition rates | most active compounds |  | no protective effects | significant activities; also recorded: high inhibition rates | performed well |  |  |  |
| Oc1cc(O)c2c(c1)OC(c1ccc(O)c(O)c1)C(O)C2 (centres unmarked) [Compound 15, catechin] | 29 | 53.3 | 13.4 |  | high inhibition rates |  |  | no protective effects |  |  | powerful free radical scavenging effects |  |  |
| O=c1c(O)c(-c2ccc(O)c(O)c2)oc2cc(O)cc(O)c12 [Compound 16, quercetin] | 33.1 | 18.8 | 13.1 |  | high inhibition rates |  |  | no protective effects | high inhibition rates |  | powerful free radical scavenging effects |  |  |
| O=C(O)c1cc(O)c(O)c(O)c1 [Compound 21, gallic acid] | 40 | 26.3 | 10 |  | high inhibition rates |  |  |  | high inhibition rates |  | powerful free radical scavenging effects |  |  |
| O=C(O)c1ccc(O)c(O)c1 [Compound 22, protocatechuic acid] |  |  | 15.2 |  |  | most active compounds |  | no protective effects |  |  | powerful free radical scavenging effects | no activity | no activity |
